This is an account of results in publication PMC7576608, “Mechanisms of telomerase inhibition by oxidized and therapeutic dNTPs” (Nature Communications, 2020).

The subject of assay [1] is telomerase. Nature of the assay: Direct telomerase assay in the absence or presence of POT1-TPP1 (processivity R1/2). The format is biochemical, human. An excerpt: Next we tested whether the telomerase processivity factor POT1–TPP1 modulates modified dNTP inhibition of telomerase. POT1 binds to the telomeric ssDNA overhang, requiring the minimum sequence of 5′-[…]-3′[38]. Inclusion of POT1-binding partner TPP1, increases the binding affinity for telomeric DNA ten-fold compared to POT1 alone. POT1–TPP1 recruits telomerase to telomeres in vivo[39], and greatly increases telomerase repeat processivity. Therefore, we reasoned that POT1–TPP1 may overcome inhibition by the modified dNTPs and enhance telomerase processivity. We conducted telomerase extension reactions with radiolabeled primer in the presence of POT1–TPP1, and used a primer with a single mutation ([…]; underlined G to C mutation)[40] to ensure POT1–TPP1 is positioned at the 5′ portion of the primer (Fig. 5). This provides a homogenous substrate for telomerase extension.
For these reactions, we replaced the natural dNTP with the modified dNTP analog, while the other dNTPs remained at cellular relevant concentrations.
Direct telomerase assays were conducted in the absence or presence of 500 nM POT1 and 500 nM TPP1, as indicated, and 5 nM ^32P-end labeled primer ([…]) designed to position POT1 at the 10 nt primer 5′ end. Reactions contained cellular-concentration dNTPs (lanes 1 and 2), except when the natural dNTP was substituted with the oxidized dNTP a or therapeutic dNTP b analog (lanes 3–8), as indicated. […] Letters on the right indicate template base; P indicates unextended 18-mer primer. c Processivity was calculated on the basis of total products normalized to loading control. Images are representative of, and data are shown as mean ± s.d. from 3 to 5 independent experiments. Source data are provided as a Source Data file.
The reactions were started by the addition of 3 μl of immunopurified telomerase eluent, incubated at 37 °C for 1 h, then terminated with 2 μl of […] and heat inactivated at 65 °C for 20 min. An equal volume of loading buffer (94% formamide, 0.1× TBE, 0.1% bromophenol blue, 0.1% xylene cyanol) was added to the reaction eluent. The samples were heat denatured for 10 min at 100 °C and loaded onto a 14% denaturing acrylamide gel (7 M urea, 1× TBE) and electrophoresed for 90 min at constant 38 W. Samples were imaged using a Typhoon phosphorimager (GE Healthcare). Percent primer extension was calculated with ImageQuant TL 8.2 by measuring the intensity of each product band and dividing by the total radioactivity in the lane or total products, as indicated in the figure legends.
The processivity was calculated as described[40],[67]. Repeat processivity from the direct telomerase extension assays was calculated as R1/2 (equivalent to the half-time for decay in an exponential time course), which represents the median length of DNA product formed, expressed in terms of number of telomere repeats. First, the total volume counts for each product band extend by one or more telomere repeats were obtained using Image Quant TL. The volume counts were then normalized by dividing by the number of radiolabeled guanosines incorporated into the extended products based on the number of repeats added, termed corrected volume (corr vol). The “percent left behind” (%LB) was calculated for each product band by summing the counts for that product band and for every product band below (shorter products), divided by the total counts for the lane, and then multiplied by 100. The natural log of (100−%LB) was calculated and then plotted vs. repeat number for each product length. A linear regression line was fit to the data to determine the slope of the line.

Assay [2] concerns the target telomerase (Homo sapiens, UniProt O14746). The assay is described as follows: Telomerase extension of 32P-end labeled primers with a single dNTP (percent primer extension). The conditions noted are these: for Percent Primer Extension: 50 μM single dNTP. The arrangement: made in house; anti-FLAG immunopurification, eluted with 3xFLAG peptide. The assay is classed as biochemical. The protocol:
A chain terminating mechanism of inhibition requires that the enzyme adds the modified dNTP to a growing chain, which then blocks further synthesis. […] To test whether telomerase can incorporate other modified dNTPs, and whether the incorporation is chain terminating and/or mutagenic, we conducted direct extension assays in which we radiolabeled the primer and added increasing concentrations (5, 50, and 500 μM) of a single dNTP (Supplementary Figs. 3, 5, 6, and 7). Since modified dNTPs may prefer mispairing, we tested various primers in which the first template base was either rA3, rC1, or rU5 (primer 1, primer 2, and primer 3, respectively), and compared the percent primer extension for each dNTP at the middle 50 μM concentration (Fig. 3). Primers 1 and 2 initiate synthesis at consecutive rA3rA4 or rC1rC2 template bases, respectively, so we could examine both incorporation and extension to the next base. However, the telomerase template lacks tandem rU residues.
Fig. 3 Telomerase insertion of modified dNTPs. Telomerase reactions were conducted with 5 nM ^32P-end labeled primer a Primer 1 (TTAGGG)3, b Primer 2 (GGTTAG)3, or c Primer 3 (AGGGTT)3. Reactions contained cellular-concentration dNTPs (lane 1) or 50 μM of indicated natural dNTP (blue, lanes 2–5), oxidized dNTP (red, lanes 6–8), or therapeutic dNTP (green, lanes 9–11). Products were separated on denaturing gels. […] Letters on the right indicate the template base; P indicates unextended 18-mer primer. Graphs represent the percent of total primers extended. Images are representative of, and data are shown as mean ± s.d. from, three independent experiments. Source data are provided as a Source Data file.
An equal volume of loading buffer (94% formamide, 0.1× TBE, 0.1% bromophenol blue, 0.1% xylene cyanol) was added to the reaction eluent. The samples were heat denatured for 10 min at 100 °C and loaded onto a 14% denaturing acrylamide gel (7 M urea, 1× TBE) and electrophoresed for 90 min at constant 38 W. Samples were imaged using a Typhoon phosphorimager (GE Healthcare). Percent primer extension was calculated with ImageQuant TL 8.2 by measuring the intensity of each product band and dividing by the total radioactivity in the lane or total products, as indicated in the figure legends.
Telomerase reactions were conducted with 5 nM 32P-end labeled primer (a) Primer 1 (TTAGGG)3, (b) Primer 2 (GGTTAG)3, or (c and d) Primer 3 […]
(d) reactions contained 3 µg/µl RNase A. Products were separated on denaturing gels. Letters on the right indicate the template base; P indicates unextended 18-mer primer. Graphs represent the percent of total primers extended for the reactions in panels a – c from one experiment. Panel d is a representative image from three independent experiments. Source data are provided as a Source Data file. […]
Supplementary Fig 4. Time course reactions with telomerase or pol β. (a, b) Telomerase reactions were conducted with 5 nM 32P-end labeled primer (a) Primer 4 (GTTAGG)3 or (b) Primer 2 (GGTTAG)3.
Products were separated on denaturing gels. Letters on the right indicate the template base; P indicates […]
unextended 18-mer primer. […]

The mark [3] stands for this setting: Primer 1 (TTAGGG)3, first template base rA3, Mean of three experiments.
[4] abbreviates: Primer 2 (GGTTAG)3, first template base rC1, Mean of three experiments.
[5] abbreviates: Primer 2 (GGTTAG)3, first template base rC1, single experiments n1-n3.

Chain of telomerase (Homo sapiens, UniProt O14746) (O14746 whole entry): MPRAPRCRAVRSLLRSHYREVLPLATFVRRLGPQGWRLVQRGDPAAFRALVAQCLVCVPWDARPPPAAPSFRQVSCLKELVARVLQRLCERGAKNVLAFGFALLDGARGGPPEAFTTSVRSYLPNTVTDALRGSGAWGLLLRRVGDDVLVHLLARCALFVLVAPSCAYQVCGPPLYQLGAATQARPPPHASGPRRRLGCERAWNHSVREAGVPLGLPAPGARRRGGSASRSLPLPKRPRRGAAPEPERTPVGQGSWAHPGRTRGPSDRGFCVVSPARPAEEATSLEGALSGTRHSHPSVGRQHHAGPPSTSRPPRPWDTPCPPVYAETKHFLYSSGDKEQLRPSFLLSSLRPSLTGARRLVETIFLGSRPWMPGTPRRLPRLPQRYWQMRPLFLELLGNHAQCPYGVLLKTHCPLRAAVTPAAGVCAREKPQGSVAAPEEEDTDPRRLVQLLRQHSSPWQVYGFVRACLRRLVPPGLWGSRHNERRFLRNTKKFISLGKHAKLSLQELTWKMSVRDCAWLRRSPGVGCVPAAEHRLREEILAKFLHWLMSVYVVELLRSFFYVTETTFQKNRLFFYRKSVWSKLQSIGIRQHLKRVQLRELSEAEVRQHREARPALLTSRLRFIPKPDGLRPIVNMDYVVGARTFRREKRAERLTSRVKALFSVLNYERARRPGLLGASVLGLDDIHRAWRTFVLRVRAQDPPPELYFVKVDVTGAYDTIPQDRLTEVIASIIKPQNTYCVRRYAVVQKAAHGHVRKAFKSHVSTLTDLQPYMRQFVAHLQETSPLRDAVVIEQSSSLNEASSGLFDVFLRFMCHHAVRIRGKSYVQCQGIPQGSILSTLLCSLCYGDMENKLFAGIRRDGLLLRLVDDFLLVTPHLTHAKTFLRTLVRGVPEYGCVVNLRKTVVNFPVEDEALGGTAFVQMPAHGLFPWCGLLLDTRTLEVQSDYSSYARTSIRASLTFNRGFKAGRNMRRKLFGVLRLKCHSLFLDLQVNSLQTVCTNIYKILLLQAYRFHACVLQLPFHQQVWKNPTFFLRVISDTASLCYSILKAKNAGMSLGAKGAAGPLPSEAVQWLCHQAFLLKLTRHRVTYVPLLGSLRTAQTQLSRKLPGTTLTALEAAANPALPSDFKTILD

Take `Nc1nc(O)nc2c1ncn2C1CC(O)C(COP(=O)(O)OP(=O)(O)OP(=O)(O)O)O1` (stereo not shown) [2-OH-dATP]: the “Fold enhancement of repeat processivity by POT1-TPP1” value in assay [1] (2-OH-dATP replaced dATP) was determined as 5 fold. Further, the entries for the “Percent Primer Extension” value in assay [2] (setting [3]) and in assay [2] (setting [4]) were 2.82% and 1.32%, respectively. Also, the “% Primer Extension” value is 0.00% in assay [2] (Primer 1, 5µM dNTP); 1.98% in assay [2] (Primer 1, 50µM dNTP); 6.01% in assay [2] (Primer 1, 500µM dNTP); 0.00% in assay [2] (Primer 2, 5µM dNTP); 1.93% in assay [2] (Primer 2, 50µM dNTP); 3.14% in assay [2] (Primer 2, 500µM dNTP). Besides, the “% Primer Extension” value in assay [2] (Primer 3, 5µM dNTP) is on record as 8.27%; in assay [2] (Primer 3, 50µM dNTP), 15.94%; in assay [2] (Primer 3, 500µM dNTP) it was 46.35%. Also, the “Fold less product than with dATP” value in assay [2] (Primer 3, insertion opposite rU5, 50 μM) amounted to 2 fold. For the same molecule, the “Mutagenic insertion by telomerase (in words)” value in assay [2] (misinsertion opposite rA3 and rC1) is recorded as “not mutagenic”.
Consider `Nc1nc2c(ncn2C2CC(O)C(COP(=O)(O)OP(=O)(O)OP(=O)(O)O)O2)c(=S)[nH]1` (stereo not shown) [6-thio-dGTP], for which the “Effect of POT1-TPP1 on telomerase in presence of analog (in words)” value in assay [1] (analog substituted for its natural dNTP) was “failed to stimulate telomerase”. For the same molecule, the “% Primer Extension” value worked out at 0% in assay [2] (Primer 1, 5µM dNTP); 3.68% in assay [2] (Primer 1, 50µM dNTP); 4.47% in assay [2] (Primer 1, 500µM dNTP); 6.19% in assay [2] (Primer 2, 5µM dNTP); 6.25% in assay [2] (Primer 2, 50µM dNTP); 8.35% in assay [2] (Primer 2, 500µM dNTP). Besides, the “% Primer Extension” value in assay [2] (Primer 3, 5µM dNTP) is 6.75%; in assay [2] (Primer 3, 50µM dNTP), 6.04%; in assay [2] (Primer 3, 500µM dNTP), 7.79%. Moreover, the “Chain termination after telomerase insertion (in words)” value in assay [2] (end-labeled primers, single dNTP) is reported as “not a telomerase chain terminator”.
Regarding `Nc1ncnc2c1ncn2C1CC(O)C(COP(=O)(O)OP(=O)(O)OP(=O)(O)O)O1` (stereo not shown) [dATP], the “Percent Primer Extension” value in assay [2] (setting [3]) is on record as 3.48%; in assay [2] (setting [4]), 0.00%; in assay [2] (setting [5]) it was 0.00%. Moreover, the “% Primer Extension” value is 0.00% in assay [2] (Primer 1, 5µM dNTP); 1.84% in assay [2] (Primer 1, 50µM dNTP); 3.63% in assay [2] (Primer 1, 500µM dNTP); 0.00% in assay [2] (Primer 2, 5µM dNTP); 0.00% in assay [2] (Primer 2, 50µM dNTP); 2.50% in assay [2] (Primer 2, 500µM dNTP). Besides, the “% Primer Extension” value worked out at 11.52% in assay [2] (Primer 3, 5µM dNTP); 14.88% in assay [2] (Primer 3, 50µM dNTP); 23.85% in assay [2] (Primer 3, 500µM dNTP).
On to `Nc1nc2c(ncn2C2CC(O)C(COP(=O)(O)OP(=O)(O)OP(=O)(O)O)O2)c(=O)[nH]1` (stereo not shown) [dGTP], for which the “% Primer Extension” value was 5.54% in assay [2] (Primer 1, 5 µM dGTP, one experiment); 14.06% in assay [2] (Primer 1, 50 µM dGTP, one experiment); 18.26% in assay [2] (Primer 1, 500 µM dGTP, one experiment); 20.91% in assay [2] (Primer 2, 5 µM dGTP, one experiment); 31.85% in assay [2] (Primer 2, 50 µM dGTP, one experiment); 40.91% in assay [2] (Primer 2, 500 µM dGTP, one experiment). Moreover, the “% Primer Extension” value in assay [2] (Primer 3, 5 µM dGTP, one experiment) was found to be 2.22%; in assay [2] (Primer 3, 50 µM dGTP, one experiment) it was 6.90%; in assay [2] (Primer 3, 500 µM dGTP, one experiment) it was 12.81%; in assay [2] (time course, 50 μM dGTP, primer 2 (GGTTAG)3, 0 minutes) it was 0.00%; in assay [2] (time course, 50 μM dGTP, primer 2 (GGTTAG)3, 1 minute), 1.70%; in assay [2] (time course, 50 μM dGTP, primer 2 (GGTTAG)3, 3 minutes), 2.22%. The “% Primer Extension” value in assay [2] (time course, 50 μM dGTP, primer 2 (GGTTAG)3, 5 minutes) worked out at 2.61%; in assay [2] (time course, 50 μM dGTP, primer 2 (GGTTAG)3, 9 minutes), 2.82%; in assay [2] (time course, 50 μM dGTP, primer 2 (GGTTAG)3, 15 minutes), 7.50%; in assay [2] (time course, 50 μM dGTP, primer 2 (GGTTAG)3, 30 minutes) it was 7.57%; in assay [2] (time course, 50 μM dGTP, primer 2 (GGTTAG)3, 45 minutes), 7.80%; in assay [2] (time course, 50 μM dGTP, primer 4 (GTTAGG)3, 0 minutes), 0.00%. Moreover, the “% Primer Extension” value came to 1.79% in assay [2] (time course, 50 μM dGTP, primer 4 (GTTAGG)3, 1 minute); 0.86% in assay [2] (time course, 50 μM dGTP, primer 4 (GTTAGG)3, 3 minutes); 1.17% in assay [2] (time course, 50 μM dGTP, primer 4 (GTTAGG)3, 5 minutes); 1.23% in assay [2] (time course, 50 μM dGTP, primer 4 (GTTAGG)3, 9 minutes); 1.72% in assay [2] (time course, 50 μM dGTP, primer 4 (GTTAGG)3, 15 minutes); 4.10% in assay [2] (time course, 50 μM dGTP, primer 4 (GTTAGG)3, 30 minutes). The “% Primer Extension” value in assay [2] (time course, 50 μM dGTP, primer 4 (GTTAGG)3, 45 minutes) was found to be 8.71%.
Regarding `Cc1cn(C2CC(O)C(COP(=O)(O)OP(=O)(O)OP(=O)(O)O)O2)c(=O)[nH]c1=O` (stereo not shown) [dTTP], the “% Primer Extension” value amounted to 30.00% in assay [2] (Primer 1, 5µM dNTP); 36.00% in assay [2] (Primer 1, 50µM dNTP); 45.00% in assay [2] (Primer 1, 500µM dNTP); 0.00% in assay [2] (Primer 2, 5µM dNTP); 0.00% in assay [2] (Primer 2, 50µM dNTP); 0.00% in assay [2] (Primer 2, 500µM dNTP). The “% Primer Extension” value in assay [2] (Primer 3, 5µM dNTP) was 3.79%; in assay [2] (Primer 3, 50µM dNTP), 9.26%; in assay [2] (Primer 3, 500µM dNTP), 17.69%. Also, the “Percent Primer Extension” value in assay [2] (setting [4]) and in assay [2] (setting [5]) was 0.00% throughout.
